What was measured:
MRP2 = target: T1, MRP2 (Homo sapiens, UniProt Q92887); experiment: CDFDA excretion of present evaluation model, microscopy; assay type: in vitro ADME; settings: CDFDA 2 μM, 5 µM, or 10 µM, 37°C, 30 min, 5% CO2; FIG. 5
T1 construct: host or cells: human hepatocyte-like cells (sac-like material) cultured from human primary hepatocytes
Description: (§1) The culture of human liver cells after the subculturing in Experimental Example 1, the culture medium in Table 1, and 2% by volume of Matrigel with respect to the culture medium were added to a 6-well culture plate (manufactured by Sumitomo Bakelite Co., Ltd., MS-8006R), followed by the suspension culture at 37° ° C. for 3 days in the presence of 5% by volume of CO2 to form a sac-like material.
(§2) In Experimental Example 2, 2 μM, 5 µM, or 10 µM of carboxydichlorofluorescein diacetate (CDFDA), which is a substrate of MRP2, was added to the culture solution after the suspension culture. The incorporation of the CDFDA into the inner cavity of the present evaluation model was carried out at 37 °C for 30 min in the presence of 5% by volume of CO2. A culture solution containing the present evaluation model was placed in a low-adsorption 15 ml tube by pipetting, followed by centrifugation.

P-glycoprotein (P-gp) [1] = target: T2, P-glycoprotein (P-gp) (Homo sapiens, UniProt P08183)
Description: Rho123 (10 μM) was added to the culture solution containing the culture embedded in Matrigel after the culturing prepared in Experimental Example 1, and the incorporation of the Rho123 into the inner cavity of the culture was carried out at 37° C. for 30 min in the presence of 5% by volume of CO2.
The polymerized Matrigel was degraded by pipetting and enzymatic treatment (Corning (registered trade name) Cell Recovery Solution) in order to measure the amount of the incorporated Rho123.

P-glycoprotein (P-gp) [2] = target: T2, P-glycoprotein (P-gp); experiment: Quantification of Rho123 incorporated into inner cavity of present evaluation model by LC/MS; assay type: in vitro ADME; parameters: In the obtained culture, an inner cavity due to the membrane of the human hepatocyte-like cell was formed; host or cells: human hepatocyte-like cells (organoid or sac-like material) cultured from human primary hepatocytes; settings: Rho123 10 μM in culture solution, 37°C, 30 min
Description: as §1
as §2, with “Rho123 (10 μM),” for “2 μM, 5 µM, or 10 µM of carboxydichlorofluorescein diacetate (CDFDA),”, “for P-glycoprotein (P-gp),” for “of MRP2,”, “Rho123” for “CDFDA”, “mL” for “ml”
The present evaluation model of Experimental Example 3, into which Rho123 had been incorporated, was mixed with methanol to kill the human hepatocyte-like cells. After mixing, centrifugation was carried out to extract the supernatant. The supernatant was subjected to analysis by a liquid chromatography-mass spectrometer (LC/MS) (manufactured by SHIMADZU CORPORATION, LCMSTM-8040), and from the concentration and amount of the Rho123 incorporated into the inner cavity and the concentration of the Rho123 in the culture solution, the proportion of the present evaluation model transported into the inner cavity was calculated.
• Column: Xbridge C18 3.5 μm, 2.1 mm×50 mm • Column temperature: 40° ° C. • Internal standard substance: Tolbutamine • Elution solvent: A solution (a 0.1% by mass formic acid solution), B solution (acetonitrile) • Gradient conditions: see Table 2 • Runtime: 7 minutes • Flow rate: 0.4 mL/min • Injection volume: 3 μL
• Mode: Positive (*the standard substance is in a negative mode)

P-glycoprotein (P-gp) [3] = target: T2, P-glycoprotein (P-gp); experiment: Rho123 excretion of present evaluation model (sac-like material, suspension culture), fluorescence microscopy; assay type: in vitro ADME; parameters: In the obtained culture, an inner cavity due to the membrane of the human hepatocyte-like cell was formed; host or cells: human hepatocyte-like cells (organoid or sac-like material) cultured from human primary hepatocytes; settings: Rho123 10 μM, 37°C, 30 min, 5% CO2; sac-like material of human hepatocyte-like cells, 2% by volume Matrigel suspension culture; FIG. 2A/2B
Description: as §1
as §2, with “Rho123 (10 μM),” for “2 μM, 5 µM, or 10 µM of carboxydichlorofluorescein diacetate (CDFDA),”, “for P-glycoprotein (P-gp),” for “of MRP2,”, “Rho123” for “CDFDA”, “mL” for “ml”

T2 sequence (P08183 whole entry): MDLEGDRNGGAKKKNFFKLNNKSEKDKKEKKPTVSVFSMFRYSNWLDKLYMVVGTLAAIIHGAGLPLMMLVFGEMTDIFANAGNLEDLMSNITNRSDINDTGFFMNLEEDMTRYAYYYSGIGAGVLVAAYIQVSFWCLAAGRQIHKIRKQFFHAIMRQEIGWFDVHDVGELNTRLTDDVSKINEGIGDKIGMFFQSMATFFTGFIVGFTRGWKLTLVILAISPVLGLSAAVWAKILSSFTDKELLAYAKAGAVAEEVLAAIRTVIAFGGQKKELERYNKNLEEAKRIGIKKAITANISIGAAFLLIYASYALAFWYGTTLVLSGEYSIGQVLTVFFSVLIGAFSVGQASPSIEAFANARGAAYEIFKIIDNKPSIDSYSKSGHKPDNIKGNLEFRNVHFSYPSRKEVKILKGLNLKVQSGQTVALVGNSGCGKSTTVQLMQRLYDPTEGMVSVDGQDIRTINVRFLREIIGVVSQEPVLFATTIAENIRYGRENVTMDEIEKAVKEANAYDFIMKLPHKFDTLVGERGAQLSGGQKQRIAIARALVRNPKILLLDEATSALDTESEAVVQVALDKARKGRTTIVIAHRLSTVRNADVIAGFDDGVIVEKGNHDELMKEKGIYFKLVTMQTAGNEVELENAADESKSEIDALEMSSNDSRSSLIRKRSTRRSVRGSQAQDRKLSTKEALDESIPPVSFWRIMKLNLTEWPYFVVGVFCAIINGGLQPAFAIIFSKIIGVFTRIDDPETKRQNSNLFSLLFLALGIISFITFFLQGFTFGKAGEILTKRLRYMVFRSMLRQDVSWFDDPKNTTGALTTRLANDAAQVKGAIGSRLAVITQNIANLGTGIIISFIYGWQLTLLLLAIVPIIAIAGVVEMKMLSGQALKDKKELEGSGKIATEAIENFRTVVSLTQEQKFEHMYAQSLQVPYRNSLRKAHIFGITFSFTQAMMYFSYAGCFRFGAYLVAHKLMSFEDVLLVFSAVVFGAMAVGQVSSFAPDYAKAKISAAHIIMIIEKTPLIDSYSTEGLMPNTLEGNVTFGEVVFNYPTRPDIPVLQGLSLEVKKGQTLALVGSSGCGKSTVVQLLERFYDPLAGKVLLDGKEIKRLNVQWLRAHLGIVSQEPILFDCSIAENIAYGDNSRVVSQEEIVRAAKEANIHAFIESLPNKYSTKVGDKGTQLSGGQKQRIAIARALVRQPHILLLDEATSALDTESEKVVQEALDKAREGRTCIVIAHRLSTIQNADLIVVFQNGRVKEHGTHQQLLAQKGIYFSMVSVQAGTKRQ
T1 sequence (Q92887 whole entry): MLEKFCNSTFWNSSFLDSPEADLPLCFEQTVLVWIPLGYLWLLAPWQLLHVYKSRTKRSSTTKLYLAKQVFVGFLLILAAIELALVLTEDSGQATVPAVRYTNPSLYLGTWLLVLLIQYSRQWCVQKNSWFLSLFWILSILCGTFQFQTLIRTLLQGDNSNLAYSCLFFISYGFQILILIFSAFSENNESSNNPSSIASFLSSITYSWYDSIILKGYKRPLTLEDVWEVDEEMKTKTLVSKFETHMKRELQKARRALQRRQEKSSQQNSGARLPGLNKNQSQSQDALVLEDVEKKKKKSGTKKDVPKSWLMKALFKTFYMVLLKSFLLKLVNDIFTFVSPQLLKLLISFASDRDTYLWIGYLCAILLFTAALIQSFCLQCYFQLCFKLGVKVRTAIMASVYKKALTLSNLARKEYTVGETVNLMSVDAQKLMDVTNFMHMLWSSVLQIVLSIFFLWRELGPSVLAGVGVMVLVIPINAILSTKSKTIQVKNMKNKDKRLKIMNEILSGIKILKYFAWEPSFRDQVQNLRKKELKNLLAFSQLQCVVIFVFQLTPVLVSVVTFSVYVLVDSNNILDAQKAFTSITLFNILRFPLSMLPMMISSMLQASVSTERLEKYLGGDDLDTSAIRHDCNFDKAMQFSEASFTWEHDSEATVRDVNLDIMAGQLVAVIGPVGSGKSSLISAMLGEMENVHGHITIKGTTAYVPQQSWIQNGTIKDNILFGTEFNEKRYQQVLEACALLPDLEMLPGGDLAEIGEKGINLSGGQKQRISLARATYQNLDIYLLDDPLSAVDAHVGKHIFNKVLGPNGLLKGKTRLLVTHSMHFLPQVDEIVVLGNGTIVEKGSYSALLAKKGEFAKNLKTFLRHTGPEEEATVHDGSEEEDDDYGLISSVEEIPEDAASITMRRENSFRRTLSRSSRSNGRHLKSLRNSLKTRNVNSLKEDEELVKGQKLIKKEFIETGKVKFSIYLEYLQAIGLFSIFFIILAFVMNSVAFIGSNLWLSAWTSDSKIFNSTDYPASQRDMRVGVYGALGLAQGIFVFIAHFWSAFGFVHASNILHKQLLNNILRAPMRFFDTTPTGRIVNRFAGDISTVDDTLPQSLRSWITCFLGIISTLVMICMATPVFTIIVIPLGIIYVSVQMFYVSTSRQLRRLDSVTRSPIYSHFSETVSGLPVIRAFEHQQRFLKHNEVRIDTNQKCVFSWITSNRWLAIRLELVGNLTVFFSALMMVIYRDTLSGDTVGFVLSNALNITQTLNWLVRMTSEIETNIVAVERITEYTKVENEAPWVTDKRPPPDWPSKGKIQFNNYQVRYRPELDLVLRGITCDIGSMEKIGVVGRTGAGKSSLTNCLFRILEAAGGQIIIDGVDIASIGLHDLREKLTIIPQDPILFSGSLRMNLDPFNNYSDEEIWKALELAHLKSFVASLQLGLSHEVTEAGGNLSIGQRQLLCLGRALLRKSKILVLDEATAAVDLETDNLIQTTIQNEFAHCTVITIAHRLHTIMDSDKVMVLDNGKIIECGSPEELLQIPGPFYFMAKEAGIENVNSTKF

Compound | Excretion into the inner cavity of the present evaluation model (microscopy) (MRP2) | Incorporation into the inner cavity of the culture (microscopy) (P-glycoprotein (P-gp) [1]) | Proportion transported into present evaluation model (P-glycoprotein (P-gp) [2]; calculated from concentration and amount in inner cavity and concentration in culture solution) [%] | Amount of Rho123 in present evaluation model (P-glycoprotein (P-gp) [2]; methanol extraction, LC/MS) [nmol] | Concentration of Rho123 in present evaluation model (P-glycoprotein (P-gp) [2]; methanol extraction, LC/MS) [nM] | Excretion into the inner cavity of the present evaluation model (microscopy) (P-glycoprotein (P-gp) [3])
carboxydichlorofluorescein diacetate [CDFDA] | excreted into the inner cavity of the present evaluation model |  |  |  |  | 
COC(=O)c1ccccc1-c1c2ccc(=N)cc-2oc2cc(N)ccc12.Cl [Rho123] |  | incorporation of Rho123 into the inner cavity of the culture was confirmed | 1.23 | 0.123 | 615.4 | excreted into the inner cavity of the present evaluation model
